Results taken from patent publication US11629335B2, “Methods of improving vector transduction efficiency into T lymphocytes” (CELGENE CORPORATION, priority 2014, dated 2023).

What was measured:
[1] = tested on: primary human T lymphocytes; assay: Lentiviral transduction efficiency of primary human T lymphocytes with CAR vector JL28.2, FACS for VEGFR2+ cells; format: cell-based; conditions: for transduced cells VEGFR2+: in presence of DD, MOI 1.8; for VEGFR2+ cells: 6 μM BX795 before and concurrently, nine hours total (Pre-treated+Concurrent); for VEGFR2 expression as compared to DD Only Control: day 3 and day 8
Method: Lentivirus encoding the vector JL28.2 (VEGFR2-CD28TM-CD28IC-P2A-GFP), which encodes a chimeric antigen receptor composed of VEGFR2 and GFP protein, was added to the activated T lymphocyte culture at a multiplicity of infection (MOI) of 1.8. Fluorescence-activated cell sorting (FACS) was used to determine the proportion of T lymphocytes expressing VEGFR2 as a marker for successfully transduced cells.
Transduced lymphocytes were then analyzed by FACS to determine the proportion of successfully transduced cells.
T lymphocytes were cultured for eight days after transduction, and VEGFR2 expression was monitored at days 3 and 8 post-transduction.
Cells were analyzed by FACS for viability.
Primary human T lymphocytes were cultured as in Section 6.3.1 and analyzed by FACS for expression of VEGFR2.

[2] = tested on: primary human T lymphocytes; assay: Viability of primary human T lymphocytes after lentiviral transduction, by FACS; conditions: absence of 2-AP, JL28.2 MOI 3, 50 U/ml IL-2; without DD or PS 84%
Method: Primary human T lymphocytes were cultured in RPMI-1640 media supplemented with 10% (v/v) fetal bovine serum (FBS), and activated with anti-CD3/CD28 Dynabeads® at a Dynabead:T lymphocyte ratio of 3:1 for 24 hours. 2-Aminopurine (2-AP) was added to cultures and incubated for 90 minutes at 37 C. DEAE-dextran (DD) or protamine sulfate (PS) were added to the cultures in the presence of 50 U/ml IL-2 and JL28.2 lentiviral vector at an MOI of 3. Cells were analyzed by FACS for viability.

Molecule: Nc1ncc2[nH]cnc2n1 [2-AP, 2-Aminopurine]
- transduction efficiency as compared to cells not exposed to 2-AP (Control) ([1]; 2-AP 2.5 mM, 5 mM or 10 mM, pretreated 90 minutes, then 5 hours with lentivirus, in presence of DD or PS): increased transduction efficiency

Molecule: O=C(NCCCNc1nc(Nc2cccc(NC(=O)N3CCCC3)c2)ncc1I)c1cccs1 [BX795]
- transduced cells VEGFR2+ ([1]; 1 μM BX795 added concurrently with lentivirus for six hours): 7.63%
- VEGFR2+ cells ([1]; day 3 post-transduction): 18.4%
- VEGFR2+ cells ([1]; day 8 post-transduction): 10.6%
- VEGFR2 expression level relative to DD Only cultures ([1]; 6 μM BX795 both before and during lentiviral transduction): roughly twice as high
- VEGFR2 expression as compared to DD Only Control ([1]; 6 μM BX795 concurrently with lentiviral transduction for six hours (Concurrent)): no improvement
- VEGFR2 expression as compared to DD Only Control ([1]; 6 μM BX795 for three hours before lentiviral transduction (Pre-treated)): increase
- transduced cells VEGFR2+ ([1]; 10 μM BX795 added concurrently with lentivirus for six hours): 10.5%

Molecule: protamine sulfate [PS]
- viable cells after lentiviral transduction [2]: 84.9%
- cells VEGFR2+ ([1]; transformation reagent alone, no 2-AP, JL28.2 MOI 3, without DD or PS 4.49%): 0.565%
